Test results: patent US6054315A, “Method for making activated neutrophils recognizable to macrophages” (The Board of Regents of the University of Oklahoma, priority 1997, dated 2000)

Columns and labels:
[1] = molecular target: T1, hamster galectin-1 mutant C2S-Gal-1 (Cys-2 to Ser) (Cricetulus griseus, UniProt P48538, C3S); assay: Equilibrium dialysis, binding of N-acetyllactosamine; settings: stated as similar affinity to the mutants
T1 construct: made in house; host or cells: E. coli (for the recombinant CHO galectin-1)
Method: (§1) To investigate whether dimerization of the galectin-1 is required to induce apoptosis, mutated forms of galectin-1 were prepared. Recombinant hamster galectin-1, which is highly homologous in sequence with bovine and human galectin-1 with 100% identity at the N- and C-termini positions was used. The protein was prepared as described in Cho and Cummings, 1995b, J. Biol. Chem., 270:5198-5206, ibid, J. Biolchem, 270:5207, 1995. This protein (monomeric or dimeric) contains a stabilizing mutation in which Cys at the 2nd residue was converted to Ser.
(§2) Specific mutations were created in the N- and C-termini of hamster galectin-1, as indicated in FIG. 3 and as described in further detail in Cho and Cummings, Biochemistry, 35:13081, 1996, which is hereby incorporated by reference herein in its entirety. C2S-Gal-1 contains a single replacement of Cys-2 to Ser. V5D-Gal-1 contains a single mutation of Val-5 to Asp. N-Gal-1 contains disruptions of three hydrophobic amino acids at the N-terminus. We also made another mutant construct, termed N/C-Gal-1, which contained the amino terminal changes of N-Gal-1 in addition to multiple changes in specific hydrophobic amino acids at the C-terminus (data not shown). All mutants, except for C2S-Gal-1, behaved as monomers in size exclusion HPLC and native gel electrophoresis. C2S-Gal-1 was indistinguishable from the native lectin in its ability to undergo monomer-dimer equilibrium and in its carbohydrate-binding affinity. […] However, in equilibrium dialysis N-Gal-1 and V5D-Gal-1 bound N-acetyllactosamine with similar affinity (Kd 90 μM) to that of the C2S-Gal-1 and the native lectin. […] N/C-Gal-1 was non-functional.

[2] = molecular target: T2, hamster galectin-1 mutant N-Gal-1 (monomeric; disruptions of three hydrophobic amino acids at the N-terminus) (Cricetulus griseus, UniProt P48538, A7S/C3S/L5Q/V6D); assay: as above
T2 construct: made in house; host or cells: E. coli (for the recombinant CHO galectin-1)
Method: as §1, §2

[3] = molecular target: T3, hamster galectin-1 mutant V5D-Gal-1 (Val-5 to Asp) (Cricetulus griseus, UniProt P48538, V6D); assay: as above
T3 construct: made in house; host or cells: E. coli (for the recombinant CHO galectin-1)
Method: as §1, §2

[4] = molecular target: native galectin-1 (native lectin) (Cricetulus griseus, UniProt P48538); assay: as above; design: species or system hamster; settings: stated as similar affinity to the mutants
Method: as §1
Specific mutations were created in the N- and C-termini of hamster galectin-1, as indicated in FIG. 3 and as described in further detail in Cho and Cummings, Biochemistry, 35:13081, 1996, which is hereby incorporated by reference herein in its entirety. C2S-Gal-1 contains a single replacement of Cys-2 to Ser. V5D-Gal-1 contains a single mutation of Val-5 to Asp. N-Gal-1 contains disruptions of three hydrophobic amino acids at the N-terminus. We also made another mutant construct, termed N/C-Gal-1, which contained the amino terminal changes of N-Gal-1 in addition to multiple changes in specific hydrophobic amino acids at the C-terminus (data not shown). All mutants, except for C2S-Gal-1, behaved as monomers in size exclusion HPLC and native gel electrophoresis. […]

[5] = molecular target: T4, recombinant galectin-1 (Cys at the 2nd residue converted to Ser) (Cricetulus griseus, UniProt P48538, C3S); assay: Binding of biotinylated galectin-1 to activated neutrophils and desialylated HL-60 cells (flow cytometry), inhibition by sugars; type: cell-based, hamster; settings: sugar at 10 mM; galectin-1 10 μg/ml, 30 minutes on ice
T4 construct: made in house; host or cells: E. coli (for the recombinant CHO galectin-1)
Source text: Isolated neutrophils were activated by treatment with PMA and HL-60 cells were desialylated by treatment with neuraminidase. Heparinized blood was obtained from normal donors. Neutrophils were isolated by dextran sedimentation, hypotonic lysis, and density gradient centrifugation on Histopaque-1077 (Sigma), as described [G. A. Zimmerman, T. M. McIntyre, and S. M. Prescott, J. Clin. Invest., 76:2235, 1985]. Typically, the polymorphonuclear cells were >90% neutrophils by Wright-Giemsa staining and >90% CD16^+ as assessed by flow cytometry. Neutrophils were activated by treatment with phorbol myristate acetate (PMA) (Sigma) (0.5 μM) for 20 minutes at 37° C. in RPMI containing 20% FCS (0.5 ml). HL-60 cells were routinely maintained in RPMI containing 20% FCS. Desialylated HL-60 cells were prepared by treating 3×10^7 cells with Arthrobacter ureafaciens neuraminidase (Sigma) (100 mU) in 500 μl of RPMI containing 20% FCS for 1 hour at 37° C. […] The washed cells were incubated with FITC-streptavidin (1:100 dilution) (Sigma), washed once with PBS, and analyzed by flow cytometry. […] "Unstained" indicates fluorescence of either resting neutrophils or HL-60 cells incubated in the absence of either MAL or galectin-1. "Control" indicates fluorescence of either activated neutrophils or desialylated HL-60 cells incubated with galectin-1 in the presence of 10 mM lactose. […]

[6] = molecular target: T4, recombinant galectin-1 (Cys at the 2nd residue converted to Ser); assay: Galectin-1-induced apoptosis of activated neutrophils and desialylated HL-60 cells (annexin V), inhibition by sugars; type: cell-based, hamster; settings: galectin-1 10 μM; lactose 10 mM in the method
Method: Resting or activated neutrophils (3×10^6 cells) were treated with galectin-1 (10 μM) in 0.5 ml of HBSS (lacking Ca^2+ /Mg^2+ and containing 0.5% human albumin) for 90 minutes at 37° C. in the presence or absence of 10 mM lactose. HL-60 cells and desialylated HL-60 cells (3×10^6 cells/0.5 ml) were treated with galectin-1 (10 μM) for 20 hours at 37° C. in the presence or absence of 10 mM lactose. At the end of the incubations all cells were treated with 10 mM lactose in PBS to disaggregate the cells. […]
(§3) Annexin V is a protein that recognizes phosphatidyl serine (PS) and is a convenient marker for apoptosis of neutrophils and other cells (S. J. Martin, C. P. Reutelingsperger, A. J. McGahon, J. A. Rader, R. C. van Schie, D. M. LaFace and D. R. Green D R, J. Exp. Med., 182:1545, 1995; C. H. Homburg, M. de Haas, A. E. von dem Borne, A. J. Verhoeven, C. P. Reutelingsperger and D. Roos, Blood, 85:532, 1995; I. Vermes, C. Haanen, H. Steffens-Nakken, and C. Reutelingsperger, J. Immunol. Methods, 184:39, 1995; Z. Darzynkiewicz, G. Juan, X. Li, W. Gorczyca, T. Murakami, and F. Traganos, Cytometry 27:1, 1997). […] Within 90 minutes following treatment with 10 μM galectin-1, 36% of the activated neutrophils undergo apoptosis, as determined by their staining with annexin V (FIG. 2A). […]

[7] = molecular target: T4, recombinant galectin-1 (Cys at the 2nd residue converted to Ser); assay: Galectin-1 agglutination of activated neutrophils and desialylated HL-60 cells, inhibition by sugars; type: cell-based, hamster
Method: In all cases cell binding of galectin-1 to cells was inhibited by 10 mM lactose, a known inhibitor of galectin-1 (FIG. 1), but not by 10 mM maltose, an isomeric, non-inhibitory analog (data not shown). We noted that both activated neutrophils and desialylated HL-60 cells are strongly agglutinated by galectin-1, whereas resting neutrophils and HL-60 cells are not appreciably agglutinated, which further underscores the profound differences in surface phenotypes between resting and activated neutrophils.
as §3

T4 sequence (P48538 whole entry C3S): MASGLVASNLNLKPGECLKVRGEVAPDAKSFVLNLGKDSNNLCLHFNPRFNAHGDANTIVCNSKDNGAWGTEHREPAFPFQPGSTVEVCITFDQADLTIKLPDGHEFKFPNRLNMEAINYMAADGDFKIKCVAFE
T3 sequence (P48538 whole entry V6D): as the sequence (P48538 whole entry C3S) above, with S3C, V6D counted along it
Chain of native galectin-1 (native lectin) (P48538 2-135): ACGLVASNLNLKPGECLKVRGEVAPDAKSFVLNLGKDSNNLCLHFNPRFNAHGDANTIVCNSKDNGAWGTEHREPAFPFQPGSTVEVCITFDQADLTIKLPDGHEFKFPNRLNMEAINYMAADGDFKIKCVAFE
T1 sequence (P48538 whole entry C3S): as the sequence (P48538 whole entry C3S) above
T2 sequence (P48538 2-135 C3S/L5Q/V6D/A7S limits assumed): as the sequence (P48538 2-135) above, with C2S, L4Q, V5D, A6S counted along it

Row | SMILES | Kd [1] [µM] | Kd [2] [µM] | Kd [3] [µM] | Kd [4] [µM] | inhibition of binding of galectin-1 to cells [5] | inhibition of apoptosis-inducing activity of galectin-1 [6] | inhibition of cell agglutinating activity of galectin-1 [7]
1 | CC(=O)N[C@H]1C(O)O[C@H](CO)[C@@H](O[C@@H]2O[C@H](CO)[C@H](O)[C@H](O)[C@H]2O)[C@@H]1O (stereo partly shown) [N-acetyllactosamine] | ~90 | 90 | 90 | ~90 |  |  | 
2 | OC[C@H]1O[C@@H](O[C@H]2[C@H](O)[C@@H](O)C(O)O[C@@H]2CO)[C@H](O)[C@@H](O)[C@H]1O (stereo partly shown) [lactose] |  |  |  |  | inhibited | inhibited | inhibited
3 | OC[C@H]1O[C@H](O[C@H]2[C@H](O)[C@@H](O)[C@H](O)O[C@@H]2CO)[C@H](O)[C@@H](O)[C@@H]1O [maltose] |  |  |  |  | not | not | not
